Experimental findings from ChEMBL document CHEMBL1201862, “PubChem BioAssay data set” (2004) are described below.

Some test systems named below: A498; HCT-15; MDA-N; SK-MEL-2; RXF 393; UACC-62; NCI-H23; SN12C; A549; SR; CAKI-1; M14; SK-MEL-5; MCF7; 786-0; U-251; UO-31; MDA-MB-231; OVCAR-3; NCI-H226.
Common to all, as to test: DTP human tumour cell line panel, 48 h

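In this assay, cells in 96-well plates receive the compound at five concentrations for 48 hours. Endpoints are linearly interpolated between the surrounding concentrations. The concentration for 50% growth inhibition is given as GI50.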 Activity calls are given as the source filed them. No stated cut-off is given here; in the data, active = GI50 up to about 1.1 µM and inactive = higher.

As for `COC(=O)C1=CSC2(S1)C(C(=O)OC)=CSc1c2ss/c1=N\c1ccccc1` (centres undefined), the GI50 with A498 was 1.64 µM (inactive); in the test on HCT-15, 1.74 µM; in the test on MDA-N, 2.17 µM (inactive); in the test on SK-MEL-2, 2 µM (inactive); in the test on RXF 393, 1.78 µM (inactive); with UACC-62, 1.6 µM (inactive). Further, the GI50 was 2.47 µM (inactive) with NCI-H23; 1.88 µM (inactive) in the test on SN12C; 2.52 µM (inactive) with A549; 0.605 µM (active) with SR; 2.98 µM (inactive) in the test on CAKI-1; 2.02 µM (inactive) with M14. In addition, the GI50 in the test on SK-MEL-5 was 2.53 µM (inactive); with MCF7, 3.79 µM (inactive); with 786-0 it was 1.49 µM (inactive); with U-251 it was 2.4 µM (inactive); in the test on UO-31, 2.52 µM (inactive); with MDA-MB-231, 2.07 µM (inactive). In the test on OVCAR-3, the GI50 was 3.24 µM (inactive).
In the case of `Cc1cc(C)c(C)c(-n2[nH]c(=O)n(C)c2=O)c1C`, the GI50 with A498 was > 100 µM (inactive); in the test with HCT-15, more than 100 µM; in the test with MDA-N it was > 100 µM (inactive); in the test on SK-MEL-2, > 100 µM (inactive); in the test on UACC-62, > 100 µM (inactive); with NCI-H226, > 100 µM (inactive). The GI50 in the test with NCI-H23, with SN12C, in the test with A549, with SR, in the test on CAKI-1 and in the test with M14 was > 100 µM (inactive) each time. Further, the GI50 in the test with SK-MEL-5, in the test on MCF7, in the test with 786-0, in the test with U-251, with UO-31 and with MDA-MB-231 was > 100 µM (inactive) in each case. The GI50 in the test with OVCAR-3 was > 100 µM (inactive).
Regarding `O=C(O)CN1CCNCCNCC1`, the GI50 in the test with A498 is > 100 µM (inactive); in the test on HCT-15, more than 100 µM; with MDA-N it was > 100 µM (inactive); with SK-MEL-2, > 100 µM (inactive); with UACC-62, > 100 µM (inactive); in the test on NCI-H226, > 100 µM (inactive). For the same molecule, the GI50 in the test on SN12C, in the test on A549, with SR, in the test with CAKI-1, with M14 and with SK-MEL-5 was > 100 µM (inactive) each time. Also, the GI50 with MCF7, with 786-0, with U-251, with UO-31, in the test with MDA-MB-231 and in the test on OVCAR-3 was > 100 µM (inactive) in each case.
For `OCC(O)COCn1cc(Cn2ncc3c(O)ncnc32)nn1` (centres undefined), the GI50 in the test with A498 was > 100 µM (inactive); in the test with HCT-15, more than 100 µM; in the test on MDA-N it was > 100 µM (inactive); with SK-MEL-2, > 100 µM (inactive); with UACC-62, > 100 µM (inactive); in the test on NCI-H226 it was > 100 µM (inactive). The GI50 with NCI-H23, in the test with SN12C, with A549, with SR, in the test on CAKI-1 and with M14 was > 100 µM (inactive) throughout. In addition, the GI50 in the test on SK-MEL-5, in the test with MCF7, in the test with 786-0, with U-251, in the test on UO-31 and in the test on MDA-MB-231 was > 100 µM (inactive) throughout. For the same molecule, in the test on OVCAR-3, the GI50 was > 100 µM (inactive).
For the molecule `O=C1NC(N2CCOCC2)=N/C1=C\c1ccco1`, the GI50 in the test with HCT-15 was more than 100 µM; in the test with MDA-N, > 100 µM (inactive); in the test with SK-MEL-2, > 100 µM (inactive); in the test with RXF 393, > 100 µM (inactive); in the test with UACC-62 it was > 100 µM (inactive); in the test on NCI-H226, > 100 µM (inactive). Also, the GI50 in the test with NCI-H23, with SN12C, in the test on A549, with SR, with CAKI-1 and with M14 was > 100 µM (inactive) each time. Moreover, the GI50 with SK-MEL-5, in the test on MCF7, in the test on 786-0, in the test on U-251, in the test with UO-31 and with MDA-MB-231 was > 100 µM (inactive) each time. In the test on OVCAR-3, the GI50 was > 100 µM (inactive).
`C[C@]12CC[C@H]3[C@@H](CCC4=CC(=O)CC[C@@]43C)[C@@H]1CC[C@@H]2C(=O)Nc1ccc([N+](=O)[O-])c(C(F)(F)F)c1`: the GI50 with A498 was 17.6 µM (inactive); in the test on HCT-15 it was 12 µM; in the test on MDA-N it was > 10 µM (inactive); in the test on SK-MEL-2, 17.5 µM (inactive); in the test with UACC-62 it was 15.3 µM (inactive); in the test on NCI-H226, 21.2 µM (inactive). For the same molecule, the GI50 was > 10 µM (inactive) in the test with NCI-H23; 23.4 µM (inactive) with SN12C; 17.9 µM (inactive) with A549; 23.7 µM (inactive) with SR; 18.7 µM (inactive) in the test on CAKI-1; 14.3 µM (inactive) in the test with SK-MEL-5. The GI50 with MCF7 is 16.3 µM (inactive); with 786-0, 16.6 µM (inactive); in the test with U-251 it was 17.1 µM (inactive); with UO-31 it was 16.6 µM (inactive); in the test on MDA-MB-231, 17.1 µM (inactive); in the test on OVCAR-3, 22.8 µM (inactive).
As to `O=C(CC(C(=O)c1cccs1)c1ccsc1)c1ccc(Cl)cc1` (centres undefined), the GI50 is > 100 µM (inactive) in the test on A498; more than 100 µM with HCT-15; > 100 µM (inactive) in the test on MDA-N; > 100 µM (inactive) with SK-MEL-2; > 100 µM (inactive) in the test on UACC-62; 81.8 µM (inactive) with NCI-H226. Besides, the GI50 in the test on NCI-H23, in the test with SN12C, in the test on A549, with SR, in the test with CAKI-1 and with M14 was > 100 µM (inactive) throughout. In addition, the GI50 in the test on SK-MEL-5, in the test on MCF7, in the test with 786-0, in the test on U-251, in the test with UO-31 and in the test with MDA-MB-231 was > 100 µM (inactive) throughout.
Regarding `NC(=O)c1nnc2c(F)cccc2c1N`, the GI50 is > 100 µM (inactive) in the test with A498; 92 µM in the test with HCT-15; 66.5 µM (inactive) in the test on MDA-N; > 100 µM (inactive) with SK-MEL-2; 73.8 µM (inactive) with UACC-62; 46.6 µM (inactive) in the test with NCI-H226. For the same molecule, the GI50 is > 100 µM (inactive) in the test on NCI-H23; > 100 µM (inactive) in the test with SN12C; 84.5 µM (inactive) with A549; > 100 µM (inactive) with SR; > 100 µM (inactive) in the test on CAKI-1; > 100 µM (inactive) with M14. Besides, the GI50 with SK-MEL-5 was > 100 µM (inactive); in the test on MCF7 it was 40 µM (inactive); in the test with 786-0, > 100 µM (inactive); with U-251, > 100 µM (inactive); in the test with UO-31 it was 56 µM (inactive); in the test with MDA-MB-231, > 100 µM (inactive). Further, the GI50 in the test on OVCAR-3 is > 100 µM (inactive).
With `Nc1ncnc2c1ncn2C1C=CC(CP(=O)(O)O)C1` (centres undefined), the GI50 with HCT-15 was more than 100 µM; in the test with MDA-N it was > 100 µM (inactive); with SK-MEL-2, > 100 µM (inactive); with RXF 393, > 100 µM (inactive); in the test on UACC-62 it was > 100 µM (inactive); with NCI-H226, > 100 µM (inactive). Further, the GI50 in the test on NCI-H23, in the test on SN12C, in the test with A549, in the test on SR, with CAKI-1 and with M14 was > 100 µM (inactive) each time. Besides, the GI50 in the test on SK-MEL-5, in the test on MCF7, with 786-0, in the test on U-251, in the test on UO-31 and with MDA-MB-231 was > 100 µM (inactive) each time. Further, the GI50 in the test with OVCAR-3 was > 100 µM (inactive).
As to `COc1c(O)cc2c(c1O)C1O[C@H](CO)C(O)[C@H](O)[C@H]1OC2=O` (some centres undefined), the GI50 was more than 100 µM in the test with HCT-15; > 100 µM (inactive) in the test with MDA-N; > 100 µM (inactive) with SK-MEL-2; > 100 µM (inactive) in the test on RXF 393; > 100 µM (inactive) with NCI-H226; > 100 µM (inactive) in the test on NCI-H23. For the same molecule, the GI50 in the test on SN12C, with A549, in the test on SR, in the test with CAKI-1, in the test on M14 and with SK-MEL-5 was > 100 µM (inactive) throughout. Besides, the GI50 in the test on MCF7, in the test on 786-0, with U-251, with MDA-MB-231 and in the test on OVCAR-3 was > 100 µM (inactive) in each case.
`CC(=O)O[C@H]1C(=O)[C@@]2(C)[C@H]([C@H](OC(=O)c3ccccc3)[C@]3(O)C[C@H](OC(=O)[C@H](O)[C@@H](NC(=O)OC(C)(C)C)c4ccco4)C(C)=C1C3(C)C)[C@]1(OC(C)=O)CO[C@@H]1C[C@@H]2O`: the GI50 with A498 was 2.47 µM (inactive); in the test with HCT-15, 0.00948 µM; in the test on MDA-N, < 0.005 µM (active); with SK-MEL-2 it was 0.00723 µM (active); in the test with RXF 393, 0.00899 µM (active); in the test on UACC-62, 0.0129 µM (active). In addition, the GI50 was 0.00966 µM (active) with NCI-H23; < 0.005 µM (active) with SN12C; < 0.005 µM (active) with A549; 0.053 µM (active) in the test on SR; 0.00802 µM (active) with CAKI-1; 0.0794 µM (active) with M14. The GI50 with SK-MEL-5 is < 0.005 µM (active); in the test on MCF7 it was < 0.005 µM (active); in the test with 786-0 it was 0.00614 µM (active); with U-251 it was 0.00661 µM (active); with UO-31 it was 0.0105 µM (active); in the test on MDA-MB-231 it was < 0.005 µM (active). Besides, the GI50 in the test on OVCAR-3 is 0.00769 µM (active).
